Measured values as given in patent publication US10457644B2, “Pyrazol compounds as EAAT3 inhibitors” (Hoffmann-La Roche Inc., priority 2016, dated 2019).

Key:
human EAAT3 = target: T1, human EAAT3 (Homo sapiens, UniProt P43005); assay: FLIPR Membrane Potential (FMP) assay; type: cell-based; conditions: HEK-293 cells stably expressing human EAAT3; L-glutamate as agonist at 80% of maximum response; antagonist applied 15 min before; Kb by Cheng-Prusoff from IC50
T1 construct: expressed in transfected cells
T1 sequence (P43005 1-524): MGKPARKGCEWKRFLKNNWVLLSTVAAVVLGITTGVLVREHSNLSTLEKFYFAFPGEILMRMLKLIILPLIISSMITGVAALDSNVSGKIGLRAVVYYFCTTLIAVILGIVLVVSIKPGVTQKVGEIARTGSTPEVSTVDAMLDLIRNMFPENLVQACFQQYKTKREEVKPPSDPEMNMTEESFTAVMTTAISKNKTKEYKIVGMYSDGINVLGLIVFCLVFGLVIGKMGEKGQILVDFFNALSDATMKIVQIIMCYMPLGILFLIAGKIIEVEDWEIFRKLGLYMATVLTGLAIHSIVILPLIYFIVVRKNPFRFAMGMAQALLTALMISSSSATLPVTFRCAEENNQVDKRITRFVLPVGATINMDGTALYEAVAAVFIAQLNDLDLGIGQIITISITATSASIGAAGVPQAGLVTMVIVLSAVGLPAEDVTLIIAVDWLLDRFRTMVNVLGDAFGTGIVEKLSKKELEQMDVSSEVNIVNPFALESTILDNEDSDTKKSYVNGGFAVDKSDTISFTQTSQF
Procedure: The FLIPR Membrane Potential (FMP) Assay
HEK-293 cells stably expressing human EAAT3 were seeded at 55 000 cells/well in growth medium (DMEM glutamate free (Invitrogen 11960-044), 1% Pen Strep (10 ml/l GIBCO BRL N^o 15140-023), 10% FCS non dialysed heat inactivated, 5 mg/l puromycin) in poly-D-lysine treated 96-well black microtiter plates with clear-bottom. After 24 h, the growth medium was removed and 100 μl/well of Krebs buffer (140 mM NaCl, 4.7 mM KCl, 2.5 mM CaCl2, 1.2 mM MgCl2, 11 mM HEPES, 10 mM D-glucose, pH=7.4) added. The cells were then loaded by adding 100 μl/well FMP assay dye (FLIPR Membrane Potential assay reagent, Molecular Devices). The 96-well plates were then incubated at 37° C. for 1 h. The depolarization of the cells will cause more dye to enter in the cells, where it will bind to intracellular proteins and lipids and cause an increase in the fluorescence signal. Antagonist potency at human EAAT3 was determined by using L-glutamate as agonist at a concentration which gives 80% of the maximum response. The antagonists were applied 15 min before the application of the agonist L-glutamate. The assays were performed at room temperature and measurements done by using a Fluorometric Imaging Plate Reader (FLIPR, Molecular Devices) and filter #2. Responses were measured as peak increase in fluorescence minus basal (i.e. fluorescence without addition of L-glutamate). Kb was determined using the Cheng-Prusoff equation Kb=IC50/[1+(A/EC50)], where IC50 is the concentration of the antagonist producing 50% inhibition, A is the concentration of the agonist against which the IC50 is being determined ([…]) and EC50 is the concentration of the agonist producing […].

Row | Compound | Kb (human EAAT3) [nM] | melting point [°C]
1 | Cc1ccc(-c2cc(C(=O)NC(C)(C)C)cc(-c3ccnn3C(C)(C)C)c2)cc1F [Example 29, N-tert-Butyl-3-(2-tert-butyl-pyrazol-3-yl)-5-(3-fluoro-4-methyl-phenyl)-benzamide] | 390 | 202
2 | CC(C)(C)NC(=O)c1cc(-c2ccc(C(F)(F)F)cc2)cc(-c2ccnn2CC2CC2)c1 [Example 44, N-tert-Butyl-3-[2-(cyclopropylmethyl)-pyrazol-3-yl]-5-[4-(trifluoromethyl)-phenyl]-benzamide] | 400 | 69
3 | CC(C)n1nccc1-c1cc(C(=O)NC(C)(C)CO)cc(-c2ccc(Cl)cc2)c1 [Example 39, 3-(4-Chlorophenyl)-N-(1-hydroxy-2-methyl-propan-2-yl)-5-(2-propan-2-yl-pyrazol-3-yl)-benzamide] | 270 | 80.5
4 | CC(C)n1nccc1-c1cc(C(=O)NC(C)(C)C)cc(-c2ccc(F)cc2)c1 [Example 6, N-tert-Butyl-3-(4-fluorophenyl)-5-(2-propan-2-yl-pyrazol-3-yl)-benzamide] | 95 | 161
5 | Cn1nccc1-c1cc(C(=O)NC(C)(C)C)cc(-c2ccc(Cl)cc2)c1 [Example 1, N-tert-Butyl-3-(4-chlorophenyl)-5-(2-methyl-pyrazol-3-yl)-benzamide] | 240 | 191
6 | CC(C)(C)NC(=O)c1cc(-c2ccc(Cl)c(F)c2)cc(-c2ccnn2C(C)(C)C)c1 [Example 33, N-tert-Butyl-3-(2-tert-butyl-pyrazol-3-yl)-5-(4-chloro-3-fluoro-phenyl)-benzamide] | 290 | 225
7 | CC(C)(C)NC(=O)c1cc(-c2ccc(C(F)(F)F)cc2)cc(-c2ccnn2C2CC2)c1 [Example 43, N-tert-Butyl-3-(2-cyclopropyl-pyrazol-3-yl)-5-[4-(trifluoromethyl)-phenyl]-benzamide] | 320 | 72
8 | CC(C)n1nccc1-c1cc(C(=O)NC(C)(C)C)cc(-c2ccc(Cl)c(F)c2)c1 [Example 16, N-tert-Butyl-3-(4-chloro-3-fluoro-phenyl)-5-(2-propan-2-yl-pyrazol-3-yl)-benzamide] | 310 | 87
9 | CC(C)(C)NC(=O)c1cc(-c2ccc(Cl)cc2)cc(-c2ccnn2C2CC2)c1 [Example 45, N-tert-Butyl-3-(4-chlorophenyl)-5-(2-cyclopropyl-pyrazol-3-yl)-benzamide] | 260 | 72
10 | CC(C)(CO)NC(=O)c1cc(-c2ccc(Cl)cc2)cc(-c2ccnn2C(C)(C)C)c1 [Example 41, 3-(2-tert-Butyl-pyrazol-3-yl)-5-(4-chlorophenyl)-N-(1-hydroxy-2-methylpropan-2-yl)-benzamide] | 260 | 83
11 | CC(C)(C)n1nccc1-c1cc(C(=O)NC(C)(C)C(F)(F)F)cc(-c2ccc(Cl)cc2)c1 [Example 42, 3-(2-tert-Butylpyrazol-3-yl)-5-(4-chlorophenyl)-N-(1,1,1-trifluoro-2-methyl-propan-2-yl)-benzamide] | 890 | 81
12 | CC(C)(C)NC(=O)c1cc(-c2ccc(F)cc2)cc(-c2ccnn2C2CC2)c1 [Example 23, N-tert-Butyl-3-(2-cyclopropyl-pyrazol-3-yl)-5-(4-fluorophenyl)-benzamide] | 110 | 66
13 | CC(C)n1nccc1-c1cc(C(=O)NC(C)(C)C)cc(-c2ccc(F)c(F)c2)c1 [Example 8, N-tert-Butyl-3-(3,4-difluorophenyl)-5-(2-propan-2-yl-pyrazol-3-yl)-benzamide] | 390 | 82
14 | CCn1nccc1-c1cc(C(=O)NC(C)(C)C)cc(-c2ccc(C(F)(F)F)cc2)c1 [Example 48, N-tert-Butyl-3-(2-ethyl-pyrazol-3-yl)-5-[4-(trifluoromethyl)-phenyl]-benzamide] | 290 | 70
15 | CC(C)(NC(=O)c1cc(-c2ccc(Cl)cc2)cc(-c2ccnn2C(C)(C)C)c1)C1CC1 [Example 35, 3-(2-tert-Butyl-pyrazol-3-yl)-5-(4-chlorophenyl)-N-(2-cyclopropyl-propan-2-yl)-benzamide] | 920 | 166
16 | CC(C)(C)NC(=O)c1cc(-c2ccccc2)cc(-c2ccnn2C(C)(C)C)c1 [Example 28, N-tert-Butyl-3-(2-tert-butyl-pyrazol-3-yl)-5-phenyl-benzamide] | 470 | 199.5
17 | CC(C)(C)NC(=O)c1cc(-c2ccc(F)cc2)cc(-c2ccnn2CC2CC2)c1 [Example 46, N-tert-Butyl-3-[2-(cyclopropylmethyl)-pyrazol-3-yl]-5-(4-fluorophenyl)-benzamide] | 280 | 188
18 | CC(C)n1nccc1-c1cc(C(=O)NC(C)(C)C)cc(-c2ccccc2)c1 [Example 13, N-tert-Butyl-3-phenyl-5-(2-propan-2-yl-pyrazol-3-yl)-benzamide] | 300 | 168
19 | CCn1nccc1-c1cc(C(=O)NC(C)(C)C)cc(-c2ccc(Cl)cc2)c1 [Example 24, N-tert-Butyl-3-(4-chlorophenyl)-5-(2-ethyl-pyrazol-3-yl)-benzamide] | 170 | 68
